Laboratory results from the supplement of paper PMC3937590.

Legend:
Test in all cases: -log10 GI50 (growth inhibition 50%) (-log10(M)); higher = more potent growth inhibition
[1] = tested on: AU565
Procedure, shortened: (§1)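 Breast cancer cell lines were treated with each compound for 72 hours at nine doses in 1:5 serial dilution, in triplicate, and luminescence was read against a time-zero plate. A Gompertz curve was fitted to the dose-response data by nonlinear least squares to obtain GI50, the molar concentration giving the set level of growth inhibition, which is reported as its negative logarithm. The logarithm is base 10, and values equal to the top dose carry a < qualifier.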

[2] = tested on: BT20
Procedure, shortened: as §1

[3] = tested on: BT549
Procedure, shortened: as §1

[4] = tested on: CAMA1
Procedure, shortened: as §1

[5] = tested on: HCC1395
Procedure, shortened: as §1

[6] = tested on: HCC1569
Procedure, shortened: as §1

[7] = tested on: HCC1806
Procedure, shortened: as §1

[8] = tested on: MCF10A
Procedure, shortened: as §1

[9] = tested on: MCF10F
Procedure, shortened: as §1

[10] = tested on: MDAMB134VI
Procedure, shortened: as §1

[11] = tested on: MDAMB361
Procedure, shortened: as §1

[12] = tested on: MX1
Procedure, shortened: as §1

[13] = tested on: SKBR3
Procedure, shortened: as §1

[14] = tested on: SUM149PT
Procedure, shortened: as §1

[15] = tested on: SUM229PE
Procedure, shortened: as §1

[16] = tested on: SUM52PE
Procedure, shortened: as §1

[17] = tested on: T47D_KBluc
Procedure, shortened: as §1

[18] = tested on: ZR751
Procedure, shortened: as §1

[19] = tested on: ZR75B
Procedure, shortened: as §1

[20] = tested on: UACC812
Procedure, shortened: as §1

| SMILES | -log10 GI50 [2] | -log10 GI50 [3] | -log10 GI50 [5] | -log10 GI50 [6] | -log10 GI50 [7] | -log10 GI50 [10] | -log10 GI50 [11] | -log10 GI50 [13] | -log10 GI50 [17] | -log10 GI50 [1] | -log10 GI50 [4] | -log10 GI50 [8] | -log10 GI50 [9] | -log10 GI50 [12] | -log10 GI50 [14] | -log10 GI50 [15] | -log10 GI50 [16] | -log10 GI50 [18] | -log10 GI50 [19] | -log10 GI50 [20] |
| --- | --- | --- | --- | --- | --- | --- | --- | --- | --- | --- | --- | --- | --- | --- | --- | --- | --- | --- | --- | --- |
| CN(Cc1cnc2nc(N)nc(N)c2n1)c1ccc(C(=O)N[C@@H](CCC(=O)O)C(=O)O)cc1 [Methotrexate] | < 3.48 | < 3.48 | < 3.48 | < 3.48 | 5.76 | < 3.48 | 6.8 | 6.28 | 6.57 | 5.36 | 6.97 | 7.39 | 7 | 7.82 | < 3.48 | < 3.48 | < 3.48 | 7.31 | < 3.48 | – |
| CC[C@H](CO)Nc1nc(NCc2ccccc2O)c2ncn(C(C)C)c2n1 [Olomoucine II] | 5.43 | 5.66 | 5.72 | 5.28 | 5.06 | 5.23 | 5.01 | 4.96 | – | 5.33 | 5.3 | 5.51 | 5.03 | 5.24 | 5.18 | 5.13 | 5.19 | 5.21 | 5.23 | 5.19 |
| CC(C)[C@H](CO)Nc1nc(Nc2cccc(Cl)c2)c2ncn(C(C)C)c2n1 [Purvalanol A] | 4.57 | < 3.78 | < 3.78 | 4.7 | 4.14 | 4.26 | < 3.78 | 4.19 | < 3.78 | 4.39 | 3.87 | 4.29 | 4.74 | < 3.78 | 4.88 | 4.91 | 4.79 | < 3.78 | < 3.78 | – |
| CO[C@H]1C[C@@H]2CC[C@@H](C)[C@@](O)(O2)C(=O)C(=O)N2CCCC[C@H]2C(=O)O[C@H]([C@H](C)C[C@@H]2CC[C@@H](O)[C@H](OC)C2)CC(=O)[C@H](C)/C=C(\C)[C@@H](O)[C@@H](OC)C(=O)[C@H](C)C[C@H](C)/C=C/C=C/C=C/1C [Rapamycin] | 7.17 | 5.33 | 4.84 | 6.7 | 4.01 | 9.57 | 6.22 | 8.09 | 5.65 | 7.62 | 7.82 | 6.34 | 5.44 | 5.77 | 5.03 | 4.86 | 8.52 | – | – | 7.33 |
| CO[C@H]1C[C@@H]2CC[C@@H](C)[C@@](O)(O2)C(=O)C(=O)N2CCCC[C@H]2C(=O)O[C@H]([C@H](C)C[C@@H]2CC[C@@H](OC(=O)C(C)(CO)CO)[C@H](OC)C2)CC(=O)[C@H](C)/C=C(\C)[C@@H](O)[C@@H](OC)C(=O)[C@H](C)C[C@H](C)/C=C/C=C/C=C/1C [Temsirolimus] | 6.18 | 6.61 | 4.83 | 5.49 | 4.69 | 6.89 | 6.56 | 7.27 | 4.56 | – | – | 6.38 | 6.11 | 5.45 | 5.21 | 4.87 | 8.82 | < 3.88 | 6.97 | 6.21 |

More lines, main results first:

| -log10 GI50 [2] | -log10 GI50 [3] | -log10 GI50 [5] | -log10 GI50 [6] | -log10 GI50 [7] | -log10 GI50 [10] | -log10 GI50 [11] | -log10 GI50 [13] | -log10 GI50 [17] | SMILES | -log10 GI50 [1] | -log10 GI50 [4] | -log10 GI50 [8] | -log10 GI50 [9] | -log10 GI50 [12] | -log10 GI50 [14] | -log10 GI50 [15] | -log10 GI50 [16] | -log10 GI50 [18] | -log10 GI50 [19] | -log10 GI50 [20] |
| --- | --- | --- | --- | --- | --- | --- | --- | --- | --- | --- | --- | --- | --- | --- | --- | --- | --- | --- | --- | --- |
| 6.51 | 6.28 | 6.49 | 6.33 | 6.59 | 6.65 | 7.09 | 6.65 | 7.31 | O=C1c2ccccc2-[n+]2ccc3c([nH]c4ccccc43)c21 [Fascaplysin] | 6.95 | 6.61 | 6.43 | 6.58 | 6.53 | 6.4 | 6.51 | 6.74 | 6.45 | 6.39 | – |
| 5.42 | 5.4 | 5.86 | 5.48 | 5.99 | 5.26 | 5.24 | 5.53 | 5.38 | O=C(c1ccc(Nc2nccc(-c3cc4ccccc4s3)n2)cc1)N1CCC(N2CCCC2)CC1 [IKK 16] | 5.58 | 5.57 | 5.56 | 5.37 | – | 5.82 | 6 | 5.94 | 5.29 | – | 5.09 |
| < 4.78 | < 4.78 | < 4.78 | 5.47 | < 4.78 | < 4.78 | 5.33 | 6.39 | < 4.78 | CS(=O)(=O)CCNCc1ccc(-c2ccc3ncnc(Nc4ccc(OCc5cccc(F)c5)c(Cl)c4)c3c2)o1 [Lapatinib] | 6.4 | < 4.78 | < 4.78 | 4.94 | 5.27 | – | 4.86 | < 4.78 | < 4.78 | < 4.78 | 6.34 |
| 6.19 | 6.3 | 6.33 | 5.31 | 6.5 | – | 6.24 | 6.49 | 4.58 | COC(=O)Nc1nc2cc(C(=O)c3ccccc3)ccc2[nH]1 [Mebendazole] | 6.96 | 6.33 | 5.5 | 5.45 | 6.42 | 6.18 | 5.68 | 6.85 | 6.62 | 6.81 | 4.9 |
| 4.79 | 5.29 | 5.35 | 5.14 | 5.3 | 4.97 | 4.92 | 5.17 | 5.12 | CCN(CC)CCNC(=O)c1c(C)[nH]c(/C=C2\C(=O)Nc3ccc(F)cc32)c1C [Sunitinib malate] | 5.42 | 5.07 | 5.27 | 5.39 | 5.27 | 5.57 | 5.46 | 5.94 | 4.88 | – | – |
| 5.29 | 5.83 | 6.03 | 4.6 | 5.97 | 6.09 | 6 | – | – | Cc1cc(C(=O)N2CCN(c3cccc(Cl)c3)CC2)n(-c2ccccc2)n1 [XRP44X] | 6.35 | 6.01 | 6.55 | < 3.88 | 6.04 | 5.88 | 6.6 | 6.06 | 5.91 | 5.9 | 6.15 |
